The source of these data is patent US8791123B2, “Substituted pyrazolo[1,5-a]pyrimidine compounds as Trk kinase inhibitors” (Array Biopharma, Inc., priority 2009, dated 2014).

Like-named read-outs stand apart in the source and are kept apart here.

Experiment [1] deals with TrkA (histidine-tagged recombinant human TrkA, cytoplasmic domain) (Homo sapiens (Human), UniProt P04629). The experiment can be described thus: TrkA ELISA Assay. Type of experiment: biochemical. As to conditions: Table 1; ELISA, 500 μM ATP; read-out: TrkA Enzyme IC50. The protocol: An enzyme-linked immunosorbant assay (ELISA) was used to assess TrkA kinase activity in the presence of inhibitors. Immulon 4HBX 384-well microtiter plates (Thermo part #8755) were coated with a 0.025 mg/mL solution of poly (Glu, Ala, Tyr; 6:3:1; Sigma P3899). […] The reaction mixture was removed from the plate by washing with PBS containing 0.1% (v/v) Tween 20. The phosphorylated reaction product was detected using 0.2 μg/mL of a phosphotyrosine specific monoclonal antibody (clone PY20) conjugated to horseradish peroxidase in conjunction with the TMB Peroxidase Substrate System (KPL). After the addition of 1M phosphoric acid, the chromogenic substrate color intensity was quantitated via absorbance at 450 nm.
Chain of TrkA (histidine-tagged recombinant human TrkA, cytoplasmic domain) (P04629 440-796): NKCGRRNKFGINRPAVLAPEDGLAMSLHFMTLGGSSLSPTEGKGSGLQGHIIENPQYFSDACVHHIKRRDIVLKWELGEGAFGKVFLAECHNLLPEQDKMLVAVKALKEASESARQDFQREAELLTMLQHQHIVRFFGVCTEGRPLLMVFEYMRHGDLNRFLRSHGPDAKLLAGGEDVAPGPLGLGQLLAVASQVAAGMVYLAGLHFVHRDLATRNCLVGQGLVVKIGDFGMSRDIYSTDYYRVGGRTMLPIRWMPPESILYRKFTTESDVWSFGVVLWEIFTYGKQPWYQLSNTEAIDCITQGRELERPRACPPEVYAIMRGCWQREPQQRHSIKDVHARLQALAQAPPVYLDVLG
For orientation: In an ELISA, binding on a coated surface is turned into a signal by an enzyme label.

Another experiment addresses Human Jak2 kinase domain (Homo sapiens (Human), UniProt O60674). The experiment can be described thus: Jak2 Inhibition Assay (Omnia kinase assay). Type of experiment: biochemical. The settings on record: read-out: Jak2 Enzyme IC50. On the procedure:
The assays described in Examples C, D, E and F for the determination of JAK1, JAK2, JAK3 and Tyk2 kinase activity, respectively, utilized the Omnia® Kinase fluorescence peptide substrate-based technology (Invitrogen). […] The reactions were therefore read at excitation 360 nm and emission was measured at 485 nm every 50 seconds for 45 minutes using a PerkinElmer EnVision Multilabel Plate Reader.
The final buffer conditions for each of the JAK1, JAK2, JAK3 and Tyk2 assays were as follows: 25 mM HEPES, pH 7.4, 10 mM MgCl2, 0.01% Triton X-100 and 1 mM DTT.
Two-μL aliquots of these were transferred to a fresh plate for a ten-fold intermediate dilution with assay buffer. Five-μL aliquots of the diluted compounds were then transferred to 20-μL of assay mixtures described in Examples C, D, E and F for a final concentration of DMSO of 2%. […] For each plate, percent of control (POC) values were calculated for each well according to the following equation:
[formula] • where • Xmax=Average Uninhibited Controls • Xmin=Average Background IC50's were estimated from the POC's using a standard 4-parameter logistic model:
[formula] • where • A=Minimum Y (Bottom Asymptote) • B=Maximum Y (Top Asymptote) • C=EC50 • D=Slope Factor • X=Compound Concentration (nM) • Y=POC
The IC50 is defined as the concentration of inhibitor at which the POC equals 50 for the fitted curve.
Compounds of Formula I were screened for their ability to inhibit Jak2 using the general enzyme inhibition assay method, in which the assay mixture contained 500 μM ATP, 10 μM Omnia® Y7 peptide (Catalog # IVGN KNZ3071C, Invitrogen Corporation, Carlsbad, Calif.) and 4 nM Jak2 in a total volume of 20 μL. Human Jak2 kinase domain comprising amino acids 808-1132 was purchased from Invitrogen Corporation, Carlsbad, Calif. (catalog # IVGN PV4210).

[2] abbreviates: Table 1, 500 μM ATP, >1000 nM when >50% inhibition not observed at 1000 nM.

Chain of Human Jak2 kinase domain (O60674 808-1132): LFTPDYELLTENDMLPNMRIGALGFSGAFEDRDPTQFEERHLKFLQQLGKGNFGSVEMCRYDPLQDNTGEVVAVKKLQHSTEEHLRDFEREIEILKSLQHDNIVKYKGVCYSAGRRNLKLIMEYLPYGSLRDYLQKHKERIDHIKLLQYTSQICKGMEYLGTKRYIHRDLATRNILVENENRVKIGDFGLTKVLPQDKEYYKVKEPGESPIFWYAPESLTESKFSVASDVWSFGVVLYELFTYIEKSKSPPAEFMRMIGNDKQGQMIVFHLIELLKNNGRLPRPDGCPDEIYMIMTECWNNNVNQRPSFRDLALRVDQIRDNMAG

Take `O=C(NOC[C@@H](O)CO)c1cnn2ccc(N3CCC[C@@H]3c3cc(F)ccc3F)nc12` [Example 88, 5-((R)-2-(2,5-difluorophenyl)pyrrolidin-1-yl)-N—((S)-2,3-dihydroxypropoxy)pyrazolo[1,5-a]pyrimidine-3-carboxamide]: the results for the IC50 (in experiment [1]; at Human Jak2 kinase domain (setting [2])) were 6.13 nM and more than 1000 nM, respectively.

With `Cc1ncc(F)cc1[C@H]1CCCN1c1ccn2ncc(C(=O)N[C@@H]3CCC[C@H]3O)c2n1` [Example 197, 5-((R)-2-(5-fluoro-2-methylpyridin-3-yl)pyrrolidin-1-yl)-N-((1R,2R)-2-hydroxycyclopentyl)pyrazolo[1,5-a]pyrimidine-3-carboxamide], the IC50 – broadly, the midpoint of a concentration-inhibition curve – was 4.8 nM in experiment [1] and more than 1000 nM at Human Jak2 kinase domain (setting [2]).

With `O=C(c1cnn2ccc(N3CCC[C@@H]3c3cncc(F)c3)nc12)N1CCCCC1` [Example 137, (R)-(5-(2-(5-fluoropyridin-3-yl)pyrrolidin-1-yl)pyrazolo[1,5-a]pyrimidin-3-yl)(piperidin-1-yl)methanone], the half-inhibitory concentration (IC50) in experiment [1] was 794 nM; on Human Jak2 kinase domain (setting [2]), more than 1000 nM.

`CC1(C)CC[C@H](c2cc(F)ccc2F)N1c1ccn2ncc(C(N)=O)c2n1` [Example 67, (R)-5-(5-(2,5-difluorophenyl)-2,2-dimethylpyrrolidin-1-yl)pyrazolo[1,5-a]pyrimidine-3-carboxamide]: the concentration for half-maximal inhibition (IC50) in experiment [1] is 5.1 nM; on Human Jak2 kinase domain (setting [2]), more than 1000 nM.

In the case of `CC(C)(CN1CCOCC1)NC(=O)c1cnn2ccc(N3CCC[C@@H]3c3cc(F)ccc3F)nc12` [Example 9, (R)-5-(2-(2,5-difluorophenyl)pyrrolidin-1-yl)-N-(2-methyl-1-morpholinopropan-2-yl)pyrazolo[1,5-a]pyrimidine-3-carboxamide], the concentration for half-maximal inhibition (IC50) is 3.45 nM in experiment [1] and more than 1000 nM on Human Jak2 kinase domain (setting [2]).

For `CC1(C)CC[C@H](c2cc(F)ccc2F)N1c1ccn2ncc(C(=O)NC3CC3)c2n1` [Example 68, (R)—N-cyclopropyl-5-(5-(2,5-difluorophenyl)-2,2-dimethylpyrrolidin-1-yl)pyrazolo[1,5-a]pyrimidine-3-carboxamide], the IC50 in experiment [1] was 6.6 nM; on Human Jak2 kinase domain (setting [2]), more than 1000 nM.

With `O=C(N[C@@H]1CCCC[C@H]1O)c1cnn2ccc(N3CCC[C@@H]3c3cncc(F)c3)nc12` [Example 136, 5-((R)-2-(5-fluoropyridin-3-yl)pyrrolidin-1-yl)-N-((1R,2R)-2-hydroxycyclohexyl)pyrazolo[1,5-a]pyrimidine-3-carboxamide], the IC50 in experiment [1] is 26.3 nM; at Human Jak2 kinase domain (setting [2]) it was more than 1000 nM.

With `O=C(O)CC1CCN(C(=O)c2cnn3ccc(N4CCC[C@@H]4c4cc(F)ccc4F)nc23)CC1` [Example 12, (R)-2-(1-(5-(2-(2,5-difluorophenyl)pyrrolidin-1-yl)pyrazolo[1,5-a]pyrimidine-3-carbonyl)piperidin-4-yl)acetic acid], the values for the IC50 (in experiment [1]; at Human Jak2 kinase domain) were 238 nM and more than 1000 nM, respectively.

Consider `O=C(N[C@H]1CC[C@H](O)CC1)c1cnn2ccc(N3CCC[C@@H]3c3cccc(F)c3)nc12` [Example 35, 5-((R)-2-(3-fluorophenyl)pyrrolidin-1-yl)-N-((trans)-4-hydroxycyclohexyl)pyrazolo[1,5-a]pyrimidine-3-carboxamide], for which the results for the half-maximal inhibitory concentration (IC50) (in experiment [1]; at Human Jak2 kinase domain (setting [2])) were 1.2 nM and 278 nM, respectively.

On to `COc1ncc(F)cc1[C@H]1CCCN1c1ccn2ncc(C(=O)NC[C@@H](C)O)c2n1` [Example 157, 5-((R)-2-(5-fluoro-2-methoxypyridin-3-yl)pyrrolidin-1-yl)-N-((R)-2-hydroxypropyl)pyrazolo[1,5-a]pyrimidine-3-carboxamide], for which the figures for the IC50 (in experiment [1]; at Human Jak2 kinase domain (setting [2])) were 2.8 nM and more than 1000 nM, respectively.

For `CC1(NC(=O)c2cnn3ccc(N4CCC[C@@H]4c4cncc(F)c4)nc23)CCC1` [Example 102, (R)-5-(2-(5-fluoropyridin-3-yl)pyrrolidin-1-yl)-N-(1-methylcyclobutyl)pyrazolo[1,5-a]pyrimidine-3-carboxamide], the IC50 in experiment [1] was 5.2 nM; at Human Jak2 kinase domain (setting [2]) it was more than 1000 nM.

For `C[C@@H](CO)NC(=O)c1cnn2ccc(N3CCC[C@@H]3c3cc(F)ccc3F)nc12` [Example 177, 5-((R)-2-(2,5-difluorophenyl)pyrrolidin-1-yl)-N-((S)-1-hydroxypropan-2-yl)pyrazolo[1,5-a]pyrimidine-3-carboxamide], the IC50 in experiment [1] is 1.8 nM; at Human Jak2 kinase domain (setting [2]), more than 1000 nM.

Regarding `COc1ncc(F)cc1[C@H]1CCCN1c1ccn2ncc(C(=O)NCCO)c2n1` [Example 155, (R)-5-(2-(5-fluoro-2-methoxypyridin-3-yl)pyrrolidin-1-yl)-N-(2-hydroxyethyl)pyrazolo[1,5-a]pyrimidine-3-carboxamide], the values for the IC50 (in experiment [1]; on Human Jak2 kinase domain (setting [2])) were 0.2 nM and more than 1000 nM, respectively.

Regarding `CC(C)(CO)NC(=O)c1cnn2ccc(N3CCC[C@@H]3c3cc(F)ccc3F)nc12` [Example 8, (R)-5-(2-(2,5-difluorophenyl)pyrrolidin-1-yl)-N-(1-hydroxy-2-methylpropan-2-yl)pyrazolo[1,5-a]pyrimidine-3-carboxamide], the figures for the 50% inhibitory concentration (IC50) (in experiment [1]; on Human Jak2 kinase domain (setting [2])) were 1.1 nM and more than 1000 nM, respectively.

As to `NC(=O)c1cnn2ccc(N3CCC[C@@H]3c3cncc(F)c3)nc12` [Example 117, (R)-5-(2-(5-fluoropyridin-3-yl)pyrrolidin-1-yl)pyrazolo[1,5-a]pyrimidine-3-carboxamide], the 50% inhibitory concentration (IC50) in experiment [1] is 45 nM; on Human Jak2 kinase domain (setting [2]), more than 1000 nM.

Consider `O=C(NCCn1ccnc1)c1cnn2ccc(N3CCC[C@@H]3c3cc(F)ccc3F)nc12` [Example 28, (R)—N-(2-(1H-imidazol-1-yl)ethyl)-5-(2-(2,5-difluorophenyl)pyrrolidin-1-yl)pyrazolo[1,5-a]pyrimidine-3-carboxamide], for which the results for the concentration for half-maximal inhibition (IC50) (in experiment [1]; on Human Jak2 kinase domain (setting [2])) were 2.8 nM and more than 1000 nM, respectively.

With `O=C(Nc1ccccn1)c1cnn2ccc(N3CCC[C@@H]3c3cc(F)ccc3F)nc12` [Example 2, (R)-5-(2-(2,5-difluorophenyl)pyrrolidin-1-yl)-N-(pyridin-2-yl)pyrazolo[1,5-a]pyrimidine-3-carboxamide], the 50% inhibitory concentration (IC50) was 0.7 nM in experiment [1] and more than 1000 nM at Human Jak2 kinase domain (setting [2]).

As to `C[C@H](O)CNC(=O)c1cnn2ccc(N3CCC[C@@H]3c3cncc(F)c3)nc12` [Example 109, 5-((R)-2-(5-fluoropyridin-3-yl)pyrrolidin-1-yl)-N-((S)-2-hydroxypropyl)pyrazolo[1,5-a]pyrimidine-3-carboxamide], the figures for the half-inhibitory concentration (IC50) (in experiment [1]; on Human Jak2 kinase domain (setting [2])) were 36.7 nM and more than 1000 nM, respectively.

As to `O=C(NCCN1CCNC1=O)c1cnn2ccc(N3CCC[C@@H]3c3cc(F)ccc3F)nc12` [Example 24, (R)-5-(2-(2,5-difluorophenyl)pyrrolidin-1-yl)-N-(2-(2-oxoimidazolidin-1-yl)ethyl) pyrazole[1,5-a]pyrimidine-3-carboxamide], the IC50 is 3.6 nM in experiment [1] and more than 1000 nM on Human Jak2 kinase domain (setting [2]).

`COc1ncc(F)cc1[C@H]1CCCN1c1ccn2ncc(C(=O)NC3CCN(CCO)CC3)c2n1` [Example 159, (R)-5-(2-(5-fluoro-2-methoxypyridin-3-yl)pyrrolidin-1-yl)-N-(1-(2-hydroxyethyl)piperidin-4-yl)pyrazolo[1,5-a]pyrimidine-3-carboxamide]: the half-inhibitory concentration (IC50) in experiment [1] was 4.3 nM; at Human Jak2 kinase domain (setting [2]), more than 1000 nM.

For the compound `Cc1ncc(F)cc1[C@H]1CCCN1c1ccn2ncc(C(=O)NC(C)(C)C)c2n1` [Example 183, (R)-N-tert-butyl-5-(2-(5-fluoro-2-methylpyridin-3-yl)pyrrolidin-1-yl)pyrazolo[1,5-a]pyrimidine-3-carboxamide], the 50% inhibitory concentration (IC50) was 6.9 nM in experiment [1] and more than 1000 nM on Human Jak2 kinase domain (setting [2]).

As for `CC(C)(CF)NC(=O)c1cnn2ccc(N3CCC[C@@H]3c3cncc(F)c3)nc12` [Example 71, (R)—N-(1-fluoro-2-methylpropan-2-yl)-5-(2-(5-fluoropyridin-3-yl)pyrrolidin-1-yl)pyrazolo[1,5-a]pyrimidine-3-carboxamide], the concentration for half-maximal inhibition (IC50) in experiment [1] is 8.65 nM; on Human Jak2 kinase domain (setting [2]), more than 1000 nM.

Take `O=C(NCC(F)CCl)c1cnn2ccc(N3CCC[C@@H]3c3cncc(F)c3)nc12` (stereo partly drawn) [Example 97, N-(3-chloro-2-fluoropropyl)-5-((R)-2-(5-fluoropyridin-3-yl)pyrrolidin-1-yl)pyrazolo[1,5-a]pyrimidine-3-carboxamide]: the results for the IC50 (in experiment [1]; at Human Jak2 kinase domain (setting [2])) were 6.2 nM and more than 1000 nM, respectively.
